# Measurements published in ChEMBL document CHEMBL1201862, “PubChem BioAssay data set” (2004).
# Calls of active or inactive are those of the source.
# What was measured:
# HEK293 [1] = assay: cells; details: Homo sapiens
# [2] = target: T1, Nucleotide-binding oligomerization domain-containing protein 1 (Homo sapiens, UniProt Q9Y239); assay: blockers of NOD1 pathway activity – revised, SAR follow-up (AID 2333); assay type: functional
# T1 sequence (Q9Y239 whole entry): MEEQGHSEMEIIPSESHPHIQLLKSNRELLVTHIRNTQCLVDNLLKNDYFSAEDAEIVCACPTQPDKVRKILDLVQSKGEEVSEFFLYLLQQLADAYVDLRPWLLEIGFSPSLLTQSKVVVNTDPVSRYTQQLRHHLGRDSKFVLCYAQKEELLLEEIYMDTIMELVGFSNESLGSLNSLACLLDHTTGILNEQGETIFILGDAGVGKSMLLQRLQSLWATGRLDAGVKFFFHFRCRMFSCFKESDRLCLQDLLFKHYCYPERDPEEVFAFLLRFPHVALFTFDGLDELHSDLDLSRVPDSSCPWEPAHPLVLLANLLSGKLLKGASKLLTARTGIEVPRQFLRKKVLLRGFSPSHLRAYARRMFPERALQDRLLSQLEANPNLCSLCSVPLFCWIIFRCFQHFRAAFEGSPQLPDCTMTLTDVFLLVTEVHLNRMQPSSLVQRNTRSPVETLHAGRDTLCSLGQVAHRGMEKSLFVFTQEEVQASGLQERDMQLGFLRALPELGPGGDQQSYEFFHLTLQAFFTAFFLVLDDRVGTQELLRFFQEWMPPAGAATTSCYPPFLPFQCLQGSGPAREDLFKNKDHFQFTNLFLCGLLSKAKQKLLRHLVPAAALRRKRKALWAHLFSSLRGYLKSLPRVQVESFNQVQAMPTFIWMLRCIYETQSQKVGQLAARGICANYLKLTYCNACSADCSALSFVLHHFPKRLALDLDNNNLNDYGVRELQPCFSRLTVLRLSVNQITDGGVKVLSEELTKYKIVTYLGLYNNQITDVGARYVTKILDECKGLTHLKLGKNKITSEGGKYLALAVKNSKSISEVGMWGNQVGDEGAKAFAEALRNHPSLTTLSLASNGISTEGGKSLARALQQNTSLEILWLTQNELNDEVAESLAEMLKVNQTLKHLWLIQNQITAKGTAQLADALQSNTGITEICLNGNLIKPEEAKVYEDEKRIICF
# Tumor necrosis factor = Tumor necrosis factor (Homo sapiens, UniProt P01375); assay: analog potency on TNFa NF-kB signaling – cell-based, revised, SAR follow-up (AID 2337); assay type: functional
# Vero = assay: cells; assay type: functional, cell-based; details: Chlorocebus sabaeus
# [3] = decrease of insulin promoter-GFP reporter – imaging, high-content screening, mouse beta cells (AID 1628); assay type: functional; details: MIN6
# [4] = MIN6 cell viability loss – mouse insulinoma, cytotoxicity control, dose response (AID 2122); assay type: functional;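 also: confirmatory high-throughput counterscreen run to flag cytotoxic compounds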
# [5] = target: T2, E3 ubiquitin-protein ligase XIAP (Homo sapiens, UniProt P98170); assay: small molecules displacing peptide from XIAP – biochemical, IAP family, fluorescence polarization (AID 1018); assay type: functional
# [6] = target: T2, E3 ubiquitin-protein ligase XIAP; assay: Counter Screen using XIAP-Bir3 for Chemical Antagonists of Bir1/2 domains of IAP-family anti-apoptotic proteins. [Related pubchem assays (depositor defined):AID1018, AID1449, AID1514, AID1638, AID1749, AID1750, AID488957, AID488963]
# [7] = loss of viability in HepG2 cells – cell-based, CellTiter-Glo, cherry-picked, cytotoxicity control for Shn3 inhibitor project, dose response (AID 624134); assay type: functional
# HEK293 [8] = assay: cells; assay type: functional, cell-based; details: Homo sapiens
# [9] = reduction of Shn3 3'UTR-driven luciferase in osteoblasts – cell-based, Clone20 osteoblasts, firefly luciferase, cherry-picked, dose response (AID 624132); assay type: functional;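 also: firefly luciferase luminescence from reporter carrying the Shn3 3'UTR in osteoblasts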
# [10] = target: Nucleotide-binding oligomerization domain-containing protein 2 (Homo sapiens, UniProt Q9HC29); assay: inhibition of NOD2-driven NF-kB reporter – cell-based, luminescence, uHTS, HEK293 (AID 1566); assay type: functional
# HEK293 [11] = assay: cells; assay type: functional, cell-based; details: Homo sapiens; remark: listed apart in the source
# HEK293 [12] = assay: cells; assay type: functional, cell-based; details: Homo sapiens; remark: listed apart in the source
# HEK293 [13] = assay: NOD2 signaling inhibitors in MDP-stimulated cells, cell-based, uHTS, luminescence (AID 2001); assay type: functional; details: Homo sapiens
# HEK293 [14] = assay: inhibition of NOD1-driven NF-kB reporter – cell-based, luminescence, uHTS, primary screen (AID 1578); assay type: functional; details: Homo sapiens
# [15] = non-specific 3'UTR reporter inhibition in Clone20-Shn3RL – cell-based, Renilla luciferase, cherry-picked, counter-screen for Shn3 inhibitor project, dose response (AID 624133); assay type: functional
# Troponin, cardiac muscle = Troponin, cardiac muscle (Homo sapiens, UniProt P19429+P45379+P63316); assay: Fluorescence-based biochemical high throughput dose response assay for activators of the calcium sensitivity of cardiac Regulated Thin Filaments (RTF). [Related pubchem assays (depositor defined):AID493008, AID493018, AID504382, AID504383]; assay type: protein-complex assay
# [16] = Counterscreen for AddAB inhibitors: absorbance-based bacterial cell-based high throughput dose response assay for inhibitors of bacterial viability. [Related pubchem assays (depositor defined):AID435030, AID449728, AID449731, AID488942, AID488955, AID488956]; assay type: functional
# Exodeoxyribonuclease V = target: T3, Exodeoxyribonuclease V (Escherichia coli (strain K12), UniProt P04993+P07648+P08394); assay: RecBCD inhibition via phage-restricted bacterial growth – absorbance, V66 E. coli, mutant T4 phage, counter-screen for AddAB inhibitor project, dose response (AID 492957); assay type: functional, cell-based, Escherichia coli str. K-12 substr. MG1655
# T3 sequence (P04993 whole entry): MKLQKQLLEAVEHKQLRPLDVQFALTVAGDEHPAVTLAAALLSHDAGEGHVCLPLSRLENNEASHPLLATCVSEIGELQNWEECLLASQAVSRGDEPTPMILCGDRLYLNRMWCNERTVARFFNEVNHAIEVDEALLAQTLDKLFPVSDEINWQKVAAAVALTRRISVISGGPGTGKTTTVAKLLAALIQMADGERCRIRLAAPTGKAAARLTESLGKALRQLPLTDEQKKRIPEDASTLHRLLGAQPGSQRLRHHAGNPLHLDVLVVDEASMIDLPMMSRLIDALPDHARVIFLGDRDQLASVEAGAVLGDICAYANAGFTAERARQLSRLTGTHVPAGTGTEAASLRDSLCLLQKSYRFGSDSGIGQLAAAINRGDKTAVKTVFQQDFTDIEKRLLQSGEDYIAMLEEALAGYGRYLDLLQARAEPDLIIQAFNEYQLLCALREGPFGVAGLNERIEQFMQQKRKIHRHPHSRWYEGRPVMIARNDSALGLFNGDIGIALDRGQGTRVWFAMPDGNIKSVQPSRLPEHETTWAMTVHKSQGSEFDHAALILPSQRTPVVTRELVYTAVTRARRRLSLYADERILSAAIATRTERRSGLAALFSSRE
# T3 sequence (P07648 whole entry): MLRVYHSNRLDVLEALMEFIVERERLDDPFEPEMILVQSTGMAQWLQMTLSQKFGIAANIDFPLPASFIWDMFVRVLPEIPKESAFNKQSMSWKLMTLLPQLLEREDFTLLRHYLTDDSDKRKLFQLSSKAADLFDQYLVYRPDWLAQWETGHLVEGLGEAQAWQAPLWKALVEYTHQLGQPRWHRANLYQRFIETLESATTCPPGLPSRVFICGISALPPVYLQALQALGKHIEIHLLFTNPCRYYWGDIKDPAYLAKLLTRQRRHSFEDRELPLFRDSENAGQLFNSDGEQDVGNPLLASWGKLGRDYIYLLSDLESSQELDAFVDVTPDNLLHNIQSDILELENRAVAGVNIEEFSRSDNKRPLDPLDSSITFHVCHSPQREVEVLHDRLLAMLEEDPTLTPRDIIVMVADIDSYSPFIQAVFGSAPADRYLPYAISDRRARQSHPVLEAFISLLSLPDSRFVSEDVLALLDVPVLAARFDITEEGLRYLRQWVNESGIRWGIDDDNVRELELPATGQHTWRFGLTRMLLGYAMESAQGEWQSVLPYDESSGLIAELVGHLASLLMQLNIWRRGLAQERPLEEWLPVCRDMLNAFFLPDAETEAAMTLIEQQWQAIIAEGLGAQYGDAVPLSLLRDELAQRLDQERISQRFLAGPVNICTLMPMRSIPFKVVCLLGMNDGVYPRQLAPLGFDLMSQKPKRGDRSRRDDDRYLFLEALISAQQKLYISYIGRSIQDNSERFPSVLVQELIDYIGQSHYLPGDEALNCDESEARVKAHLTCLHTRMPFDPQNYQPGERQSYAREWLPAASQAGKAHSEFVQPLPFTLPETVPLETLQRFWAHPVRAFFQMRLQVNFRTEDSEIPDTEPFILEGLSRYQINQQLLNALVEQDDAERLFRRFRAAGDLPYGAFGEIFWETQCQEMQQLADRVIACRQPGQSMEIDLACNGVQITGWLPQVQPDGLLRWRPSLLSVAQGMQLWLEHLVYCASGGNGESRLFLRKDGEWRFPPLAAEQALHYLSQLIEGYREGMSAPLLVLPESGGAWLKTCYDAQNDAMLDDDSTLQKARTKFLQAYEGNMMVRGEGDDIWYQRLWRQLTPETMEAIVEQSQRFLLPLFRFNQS
# T3 sequence (P08394 whole entry): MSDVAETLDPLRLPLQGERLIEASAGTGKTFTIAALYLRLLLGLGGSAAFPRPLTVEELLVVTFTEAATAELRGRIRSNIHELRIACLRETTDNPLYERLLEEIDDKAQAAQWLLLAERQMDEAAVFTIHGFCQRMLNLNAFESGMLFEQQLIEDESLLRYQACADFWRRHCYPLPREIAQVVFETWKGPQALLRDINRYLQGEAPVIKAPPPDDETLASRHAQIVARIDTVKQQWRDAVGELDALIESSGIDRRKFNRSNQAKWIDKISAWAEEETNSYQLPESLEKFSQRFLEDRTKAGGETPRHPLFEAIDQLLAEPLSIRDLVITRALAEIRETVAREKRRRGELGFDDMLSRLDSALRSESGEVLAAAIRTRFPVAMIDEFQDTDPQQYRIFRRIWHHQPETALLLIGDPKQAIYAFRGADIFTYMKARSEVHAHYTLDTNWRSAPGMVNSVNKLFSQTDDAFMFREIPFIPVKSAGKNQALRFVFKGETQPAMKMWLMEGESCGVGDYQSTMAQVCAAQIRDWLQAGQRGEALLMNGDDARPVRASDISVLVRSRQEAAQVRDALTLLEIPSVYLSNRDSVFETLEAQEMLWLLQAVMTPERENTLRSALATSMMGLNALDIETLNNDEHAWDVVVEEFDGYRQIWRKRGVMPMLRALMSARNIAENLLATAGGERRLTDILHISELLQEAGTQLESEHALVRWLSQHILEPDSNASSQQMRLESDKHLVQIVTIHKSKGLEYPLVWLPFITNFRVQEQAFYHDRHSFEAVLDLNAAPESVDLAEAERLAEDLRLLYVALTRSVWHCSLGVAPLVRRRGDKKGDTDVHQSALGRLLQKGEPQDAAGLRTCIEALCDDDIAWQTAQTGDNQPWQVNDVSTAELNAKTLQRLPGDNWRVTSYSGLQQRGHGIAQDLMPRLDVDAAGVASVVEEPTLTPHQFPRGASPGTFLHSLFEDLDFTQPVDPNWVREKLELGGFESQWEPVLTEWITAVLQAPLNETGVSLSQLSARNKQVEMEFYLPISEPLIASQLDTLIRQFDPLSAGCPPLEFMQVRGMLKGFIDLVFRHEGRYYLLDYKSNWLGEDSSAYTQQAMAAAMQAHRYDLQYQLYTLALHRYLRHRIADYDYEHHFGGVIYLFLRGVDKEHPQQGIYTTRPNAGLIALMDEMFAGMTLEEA
# [17] = target: T4, Ubiquitin-conjugating enzyme E2 N (Homo sapiens, UniProt P61088); assay type: functional;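 also: Dose-response confirmation in a TR-FRET assay detecting UBC13-driven polyubiquitin chain formation, inhibition measured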
# T4 sequence (P61088 whole entry): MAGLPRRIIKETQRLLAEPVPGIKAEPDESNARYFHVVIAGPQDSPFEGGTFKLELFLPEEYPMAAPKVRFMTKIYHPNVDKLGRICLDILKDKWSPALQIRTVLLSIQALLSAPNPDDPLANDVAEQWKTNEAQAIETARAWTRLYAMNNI
smiles,measurement,setting,value
CCCOc1ccc(C=NN=C(S)Nc2ccccc2[N+](=O)[O-])c(O)c1,IC50,HEK293 [1],> 20 µM (inactive)
same,IC50,[2],7.73 µM (active)
same,IC50,Tumor necrosis factor,880 nM (active)
Brc1ccc2[nH]c3c(c2c1)CCC3,IC50,Vero,> 25 µM (active)
c1ccc(N2CCN(Cc3ccnc4ccccc34)CC2)cc1,IC50,[3],3.42 µM (active)
same,IC50,[4],2.84 µM (active)
COc1ccc2c(c1)CCc1c(C(=O)Nc3cc(C)n(Cc4ccc(Cl)cc4)n3)noc1-2,IC50,[5],> 100 µM (not active)
same,IC50,[6],> 100 µM (inactive)
C(#Cc1ccccc1)C[N+]1(CC#Cc2cccc3ccccc23)CCOCC1,IC50,[3],2.29 µM (active)
same,IC50,[4],2.19 µM (active)
Cc1nc2ccc(NC(=O)c3cccc(S(=O)(=O)N(C)c4ccccc4)c3)cc2s1,AC50,[7],58.6 µM (active)
same,IC50,HEK293 [8],15.2 µM (active)
same,AC50,[9],7.6 µM (active)
same,EC50,[10],7.35 µM (active)
same,IC50,HEK293 [11],6.11 µM (active)
same,IC50,HEK293 [12],9.65 µM (active)
same,IC50,HEK293 [13],5.24 µM (active)
same,EC50,HEK293 [14],7.57 µM (active)
same,AC50,[15],12.8 µM (active)
C[C@@H](C(=O)N1CCNCC1)n1cc(CCCN=C(N)N)nn1,EC50,"Troponin, cardiac muscle",> 71.5 µM (inactive)
NC(=O)c1ccsc1NC(=O)COC(=O)c1ccc([N+](=O)[O-])o1,IC50,[16],> 39.5 µM (inactive)
same,IC50,Exodeoxyribonuclease V,> 119 µM (inactive)
CCC[C@@H](CN1CCC[C@H]1CN1C(N)=NC[C@@H]1Cc1ccccc1)N1C[C@@H](Cc2ccccc2)N(CCCC2CCCC2)C1=N,EC50,"Troponin, cardiac muscle",> 71.4 µM (inactive)
same,IC50,[17],> 20 µM (inactive)
COc1cccc(/C(O)=C/C=N/c2cc(C)ccc2O)c1,IC50,[5],> 100 µM (not active)
same,IC50,[6],> 100 µM (inactive)
CC/C(=N\NS(C)(=O)=O)c1ccccc1,IC50,[5],> 100 µM (not active)
same,IC50,[6],> 100 µM (inactive)
